Source: US6653478B2, “Substituted benzimidazol-2-ones as vasopressin receptor antagonists and neuropeptide Y modulators” (Ortho-McNeil Pharmaceutical, Inc., priority 2000, dated 2003)
pIC50: −log10 of the molar value. Several values for one entry are separate records, joined by “and”; a condition that tells them apart may be missing. Equal values may be shown once.

How the values were obtained:
NPY2 receptors = biological target: T1, NPY2 receptors (Homo sapiens, UniProt P49146); assay: Neuropeptide Y receptor binding assay (125I-PYY, KAN-TS cell membranes); conditions: 10 μM compound; read-out: NPY-2@10, % Inh
T1 construct: Cell Membranes from KAN-TS cells having NPY2 receptors; endogenous in cells; host or cells: KAN-TS cells (membranes)
T1 sequence (P49146 1-381): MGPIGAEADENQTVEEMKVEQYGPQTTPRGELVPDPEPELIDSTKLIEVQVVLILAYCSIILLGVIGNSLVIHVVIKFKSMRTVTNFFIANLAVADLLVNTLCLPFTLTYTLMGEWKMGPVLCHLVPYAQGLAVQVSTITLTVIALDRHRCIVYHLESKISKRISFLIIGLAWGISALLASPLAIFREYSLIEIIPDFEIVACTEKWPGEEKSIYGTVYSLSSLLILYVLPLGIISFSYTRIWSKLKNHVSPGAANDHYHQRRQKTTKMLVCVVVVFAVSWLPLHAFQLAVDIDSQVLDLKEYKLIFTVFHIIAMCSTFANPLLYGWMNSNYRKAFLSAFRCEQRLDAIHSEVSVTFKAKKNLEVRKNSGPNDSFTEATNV
In short: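 Membranes from KAN-TS cells competed with 125I-PYY in binding buffer containing BSA, test compound at 10 μM final, 1 hr at room temperature. Nonspecific binding defined with 1 μM PYY final. Tubes centrifuged, washed with PBS and bound radioactivity gamma-counted.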

human V1a receptor = human V1a receptor (Homo sapiens, UniProt P37288); assay: V1a binding assay (3H-AVP displacement, HEK-293 membranes); set-up: expressed in transfected cells; host or cells: HEK-293 (membranes); conditions: for inhibition at 1 µM: 1.0 μM compound, read-out: V1a@1.0, % Inh
human V1a receptor, sequence (P37288 whole entry): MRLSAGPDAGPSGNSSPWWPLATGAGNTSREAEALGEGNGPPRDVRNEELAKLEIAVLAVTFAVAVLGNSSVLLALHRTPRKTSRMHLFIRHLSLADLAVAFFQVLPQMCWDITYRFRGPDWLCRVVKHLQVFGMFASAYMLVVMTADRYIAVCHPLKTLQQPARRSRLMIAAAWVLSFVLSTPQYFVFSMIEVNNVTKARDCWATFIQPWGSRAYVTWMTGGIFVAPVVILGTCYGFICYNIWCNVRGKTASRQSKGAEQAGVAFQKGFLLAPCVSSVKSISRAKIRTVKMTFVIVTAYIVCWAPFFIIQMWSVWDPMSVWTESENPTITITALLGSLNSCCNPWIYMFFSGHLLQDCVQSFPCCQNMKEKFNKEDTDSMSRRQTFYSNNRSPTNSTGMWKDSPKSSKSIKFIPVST
In short: (§1)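 Tracer 3H-AVP, 10,000 cpm/well; buffer 50 mM Tris/5 mM MgCl2/0.1% BSA pH 7.5 + Pefabloc, aprotinin, leupeptin, pepstatin A, bacitracin; NSB 1.25 μM AVP; 1 h RT; GF/C filtration (0.3% PEI); scintillation count with quench correction.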

human V1b receptor = biological target: T2, human V1b receptor (Homo sapiens, UniProt P47901); assay: V1b binding assay (3H-AVP displacement, HEK-293 membranes); set-up: expressed in transfected cells; host or cells: HEK-293 (membranes); conditions: 1.0 μM compound; read-out: V1b@1.0, % Inh
T2 sequence (P47901 1-424): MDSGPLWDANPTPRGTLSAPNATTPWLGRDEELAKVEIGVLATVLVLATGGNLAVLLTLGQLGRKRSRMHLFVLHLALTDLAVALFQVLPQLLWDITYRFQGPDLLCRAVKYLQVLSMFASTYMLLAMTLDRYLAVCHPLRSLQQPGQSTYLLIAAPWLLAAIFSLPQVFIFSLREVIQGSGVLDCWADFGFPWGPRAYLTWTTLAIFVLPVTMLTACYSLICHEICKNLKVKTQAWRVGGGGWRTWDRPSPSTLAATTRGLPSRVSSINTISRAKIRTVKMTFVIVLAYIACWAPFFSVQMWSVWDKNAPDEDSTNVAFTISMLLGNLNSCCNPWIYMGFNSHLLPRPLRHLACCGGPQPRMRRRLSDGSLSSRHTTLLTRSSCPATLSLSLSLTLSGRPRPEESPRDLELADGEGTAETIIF
In short: as §1

human V2 receptor = human V2 receptor (Homo sapiens, UniProt P30518); assay: V2 binding assay (3H-AVP displacement, HEK-293 membranes); set-up: expressed in transfected cells; host or cells: HEK-293 (membranes); conditions: 1.0 μM compound; read-out: V2@1.0, % Inh
human V2 receptor, sequence (P30518 whole entry): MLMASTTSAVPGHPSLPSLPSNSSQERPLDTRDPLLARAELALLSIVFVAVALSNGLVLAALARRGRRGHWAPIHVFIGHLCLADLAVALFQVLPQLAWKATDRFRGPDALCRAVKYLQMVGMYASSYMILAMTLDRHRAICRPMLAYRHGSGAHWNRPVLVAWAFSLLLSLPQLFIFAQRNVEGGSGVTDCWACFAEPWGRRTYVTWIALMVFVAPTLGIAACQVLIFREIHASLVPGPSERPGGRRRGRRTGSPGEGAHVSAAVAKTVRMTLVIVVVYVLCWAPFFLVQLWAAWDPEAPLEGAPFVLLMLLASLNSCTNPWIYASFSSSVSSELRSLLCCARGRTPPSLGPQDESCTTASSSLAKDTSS
In short: as §1

Row | SMILES | inhibition at 10 µM (NPY2 receptors) | pIC50 (human V1a receptor) | inhibition at 1 µM (human V1b receptor) | inhibition at 1 µM (human V2 receptor) | inhibition at 1 µM (human V1a receptor)
1 | CC1CC(C)CN(CCCn2c(=O)n(C3CCN(C(=O)NC(c4ccccc4)c4ccccc4)CC3)c3ccccc32)C1 (centres unmarked) [Compound 101] | 21% | 7.85 | 43% | 0% | –
2 | O=C(NC(c1ccccc1)c1ccccc1)N1CCC(n2c(=O)n(CCCN3CC=CC3)c3ccccc32)CC1 [Compound 102] | 23% | 6.91 | 41% | 6% | –
3 | O=c1n(CCCCN2CCCC2)c2ccccc2n1C1CCN(C(=S)NC(c2ccccc2)c2ccccc2)CC1 [Compound 104] | 96% | 7.74 | 48% | 14% | –
4 | O=c1n(CCCN2CCCCC2)c2ccccc2n1C1CCN(C(=S)NCc2ccccc2)CC1 [Compound 105, 1-[(N1-piperidinocarbothioylbenzylamino)-4-yl]-3-(3-N-piperidinylpropyl)-1,3-dihydrobenzimidazol-2-one] | 12% | 6.73 | 30% | 0% | 58%
5 | O=c1n(CCCCN2CCCCC2)c2ccccc2n1C1CCN(C(=S)NC(c2ccccc2)c2ccccc2)CC1 [Compound 107] | 95% | 7.66 | 45% | 12% | –
6 | O=c1n(CCCO)c2ccccc2n1C1CCN(C(=S)NC(c2ccccc2)c2ccccc2)CC1 [Compound 108, 1-[(N1-piperidinocarbothioylbiphenylmethylamino)-4-yl]-3-(3-hydroxypropyl)-1,3-dihydrobenzimidazol-2-one] | 41% | 6.24 | 37% | 16% | –
7 | O=c1n(CCCN2CCCCC2)c2ccccc2n1C1CCN(C(=S)NCc2cccc3ccccc23)CC1 [Compound 112, 1-[(N1-piperidinocarbothioyl-1-naphthalmethylamino)-4-yl]-3-(3-N-piperidinylpropyl)-1,3-dihydrobenzimidazol-2-one] | 55% | 6.86 | 32% | 0% | –
8 | CC1CCN(CCCn2c(=O)n(C3CCN(C(=S)NC(c4ccccc4)c4ccccc4)CC3)c3ccccc32)CC1 [Compound 113, 1-[(N1-piperidinocarbothioylbiphenylmethylamino)-4-yl]-3-(4-methylpiperidin-1-yl-propyl)-1,3-dihydrobenzimidazol-2-one] | 89% | 7.64 | 47% | 7% | 70%
9 | C[C@H](NC(=S)N1CCC(n2c(=O)n(CCCN3CCCCC3)c3ccccc32)CC1)c1ccccc1 [Compound 116, 1-[(N1-piperidinocarbonthioyl-R-(−)-alpha-methylbenzylamino)-4-yl]-3-(3-N-piperidinylpropyl)-1,3-dihydrobenzimidazol-2-one] | 25% | – | 47% | 18% | 85%
10 | O=c1n(CCCN2CCCCC2)c2ccccc2n1C1CCN(C(=S)NCC(c2ccccc2)c2ccccc2)CC1 [Compound 118, 1-[(N1-piperidinocarbothioyl-2,2-diphenylethylamino)-4-yl]-3-(3-N-piperidinylpropyl)-1,3-dihydrobenzimidazol-2-one] | 52% | – | 55% | 21% | 94%
11 | O=C(NC(c1ccccc1)(c1ccccc1)c1ccccc1)N1CCC(n2c(=O)n(CCCN3CCCCC3)c3ccccc32)CC1 [Compound 120, 1-[(N1-piperidinocarbonyltriphenylmethylamino)-4-yl]-3-(3-N-piperidinylpropyl)-1,3-dihydrobenzimidazol-2-one] | 100% | – | 25% | 20% | 20%

Continued, values first:

Row | inhibition at 10 µM (NPY2 receptors) | pIC50 (human V1a receptor) | inhibition at 1 µM (human V1b receptor) | inhibition at 1 µM (human V2 receptor) | inhibition at 1 µM (human V1a receptor) | SMILES
12 | 0% | – | 32% | 2% | 56% | O=C(NCc1ccccc1)N1CCC(n2c(=O)n(CCCN3CCCCC3)c3ccccc32)CC1 [Compound 106, 1-[(N1-piperidinocarbonybenzylamino)-4-yl]-3-(3-N-piperidinylpropyl)-1,3-dihydrobenzimidazol-2-one]
13 | 58% | 7.25 | 14% | 0% | – | Cc1ccccc1NC(=S)N1CCC(n2c(=O)n(CCCN3CCCCC3)c3ccccc32)CC1 [Compound 109, 1-[(N1-piperidinocarbothioyl-2-methylphenylamino)-4-yl]-3-(3-N-piperidinylpropyl)-1,3-dihydrobenzimidazol-2-one]
14 | 0% | – | 19% | 2% | 41% | Cc1ccccc1NC(=O)N1CCC(n2c(=O)n(CCCN3CCCCC3)c3ccccc32)CC1 [Compound 110, 1-[(N1-piperidinocarbonyl-2-methylphenylamino)-4-yl]-3-(3-N-piperidinylpropyl)-1,3-dihydrobenzimidazol-2-one]
15 | 31% | 6.96 and 7.25 | 30% | 0% | – | COc1ccccc1CNC(=S)N1CCC(n2c(=O)n(CCCN3CCCCC3)c3ccccc32)CC1 [Compound 111, 1-[(N1-piperidinocarbothioyl-2-methoxybenzylamino)-4-yl]-3-(3-N-piperidinylpropyl)-1,3-dihydrobenzimidazol-2-one]
16 | 17% | – | 4% | 2% | 1% | O=C(Nc1ccccc1F)N1CCC(n2c(=O)n(CCCN3CCCCC3)c3ccccc32)CC1 [Compound 114, 1-[(N1-piperidinocarbonyl-2-fluorophenylamino)-4-yl]-3-(3-N-piperidinylpropyl)-1,3-dihydrobenzimidazol-2-one]
17 | 26% | – | 20% | 11% | 13% | O=c1n(CCCN2CCCCC2)c2ccccc2n1C1CCN(C(=S)Nc2ccccc2F)CC1 [Compound 115, 1-[(N1-piperidinocarbonthioyl-2-fluorophenylamino)-4-yl]-3-(3-N-piperidinylpropyl)-1,3-dihydrobenzimidazol-2-one]
18 | 1% | 6.48 | 43% | 15% | 68% | CCCc1ccccc1NC(=O)N1CCC(n2c(=O)n(CCCN3CCCCC3)c3ccccc32)CC1 [Compound 117, 1-[(N1-piperidinocarbonyl-2-propylphenylamino)-4-yl]-3-(3-N-piperidinylpropyl)-1,3-dihydrobenzimidazol-2-one]
19 | 13% | 7.21 | 29% | 19% | 48% | COc1ccccc1NC(=S)N1CCC(n2c(=O)n(CCCN3CCCCC3)c3ccccc32)CC1 [Compound 119, 1-[(N1-piperidinocarbothioyl-2-methoxyphenylamino)-4-yl]-3-(3-N-piperidinylpropyl)-1,3-dihydrobenzimidazol-2-one]
